Test results reported in patent publication US20220132847A1, “CINNOLINIUM COMPOUNDS FOR USE IN A METHOD OF CONTROLLING UNWANTED PLANT GROWTH” (SYNGENTA CROP PROTECTION AG, priority 2019, published 2022).

Key:
Assay in all cases: Post-emergence efficacy, glasshouse
Type in all cases: in vivo
[1] = test system: Ipomoea hederacea (IPOHE); settings: Application Rate 1000 g/Ha, evaluated after 13 days, 100=total damage to plant, 0=no damage to plant; for pest or weed control at 1000 g/ha: Ipomoea hederacea, post-emergence, 312 h, read-out: Control of weed species after post-emergence application, IPOHE
Method: (§1) Seeds of a variety of test species were sown in standard soil in pots. After cultivation for 14 days (post-emergence) under controlled conditions in a glasshouse (at 24/16° C., day/night; 14 hours light; 65% humidity), the plants were sprayed with an aqueous spray solution derived from the dissolution of the technical active ingredient formula (I) in a small amount of acetone and a special solvent and emulsifier mixture referred to as IF50 (11.12% Emulsogen EL360™+44.44% N-methylpyrrolidone+44.44% Dowanol DPM glycol ether), to create a 50 g/l solution which was then diluted to required concentration using 0.25% or 1% Empicol ESC70 (Sodium lauryl ether sulphate)+1% ammonium sulphate in water as diluent.
(§2) The test plants were then grown in a glasshouse under controlled conditions (at 24/16° C., day/night; 14 hours light; 65% humidity) and watered twice daily. After 13 days the test was evaluated (100=total damage to plant; 0=no damage to plant).
(§3) Ipomoea hederacea (IPOHE), Euphorbia heterophylla (EPHHL), Chenopodium album (CHEAL), Amaranthus palmeri (AMAPA), Lolium perenne (LOLPE), Digitaria sanguinalis (DIGSA), Eleusine indica (ELEIN), Echinochloa crus-galli (ECHCG), Setaria faberi (SETFA)

[2] = test system: Echinochloa crus-galli (ECHCG); settings: Application Rate 1000 g/Ha, evaluated after 13 days, 100=total damage to plant, 0=no damage to plant; for pest or weed control at 1000 g/ha: Echinochloa crus-galli, post-emergence, 312 h, read-out: Control of weed species after post-emergence application, ECHCG
Method: as §1, §2, §3

[3] = test system: Amaranthus palmeri (AMAPA); settings: Application Rate 1000 g/Ha, evaluated after 13 days, 100=total damage to plant, 0=no damage to plant; for pest or weed control at 1000 g/ha: Amaranthus palmeri, post-emergence, 312 h, read-out: Control of weed species after post-emergence application, AMAPA
Method: as §1, §2, §3

[4] = test system: Eleusine indica (ELEIN); settings: Application Rate 1000 g/Ha, evaluated after 13 days, 100=total damage to plant, 0=no damage to plant; for pest or weed control at 1000 g/ha: Eleusine indica, post-emergence, 312 h, read-out: Control of weed species after post-emergence application, ELEIN
Method: as §1, §2, §3

[5] = test system: Euphorbia heterophylla (EPHHL); settings: Application Rate 1000 g/Ha, evaluated after 13 days, 100=total damage to plant, 0=no damage to plant; for pest or weed control at 1000 g/ha: Euphorbia heterophylla, post-emergence, 312 h, read-out: Control of weed species after post-emergence application, EPHHL
Method: as §1, §2, §3

[6] = test system: Lolium perenne (LOLPE); settings: Application Rate 1000 g/Ha, evaluated after 13 days, 100=total damage to plant, 0=no damage to plant; for pest or weed control at 1000 g/ha: Lolium perenne, post-emergence, 312 h, read-out: Control of weed species after post-emergence application, LOLPE
Method: as §1, §2, §3

[7] = test system: Setaria faberi (SETFA); settings: Application Rate 1000 g/Ha, evaluated after 13 days, 100=total damage to plant, 0=no damage to plant; for pest or weed control at 1000 g/ha: Setaria faberi, post-emergence, 312 h, read-out: Control of weed species after post-emergence application, SETFA
Method: as §1, §2, §3

[8] = test system: Chenopodium album (CHEAL); settings: Application Rate 1000 g/Ha, evaluated after 13 days, 100=total damage to plant, 0=no damage to plant; for pest or weed control at 1000 g/ha: Chenopodium album, post-emergence, 312 h, read-out: Control of weed species after post-emergence application, CHEAL
Method: as §1, §2, §3

[9] = test system: Digitaria sanguinalis (DIGSA); settings: Application Rate 1000 g/Ha, evaluated after 13 days, 100=total damage to plant, 0=no damage to plant; for pest or weed control at 1000 g/ha: Digitaria sanguinalis, post-emergence, 312 h, read-out: Control of weed species after post-emergence application, DIGSA
Method: as §1, §2, §3

| SMILES | pest or weed control at 1000 g/ha [1] [%] | pest or weed control at 1000 g/ha [2] [%] | pest or weed control at 1000 g/ha [3] [%] | pest or weed control at 1000 g/ha [4] [%] | pest or weed control at 1000 g/ha [5] [%] | pest or weed control at 1000 g/ha [6] [%] | pest or weed control at 1000 g/ha [7] [%] | pest or weed control at 1000 g/ha [8] [%] | pest or weed control at 1000 g/ha [9] [%] | Control of weed species after post-emergence application, IPOHE [1] | Control of weed species after post-emergence application, ECHCG [2] | Control of weed species after post-emergence application, AMAPA [3] | Control of weed species after post-emergence application, ELEIN [4] | Control of weed species after post-emergence application, EPHHL [5] | Control of weed species after post-emergence application, LOLPE [6] | Control of weed species after post-emergence application, SETFA [7] | Control of weed species after post-emergence application, CHEAL [8] | Control of weed species after post-emergence application, DIGSA [9] |
| --- | --- | --- | --- | --- | --- | --- | --- | --- | --- | --- | --- | --- | --- | --- | --- | --- | --- | --- |
| C[n+]1cc(P(C)(=O)O)c2ccccc2n1 [Compound A31] | 90 | 60 | 100 | 100 | 100 | 70 | 90 | 80 | 100 | – | – | – | – | – | – | – | – | – |
| CCCS(=O)(=O)[N-]C(=O)c1c[n+](C)nc2ccccc12 [Compound A33] | 60 | 20 | 40 | 70 | 80 | 40 | 40 | 40 | 80 | – | – | – | – | – | – | – | – | – |
| CC(C)S(=O)(=O)[N-]C(=O)c1c[n+](C)nc2ccccc12 [Compound A34] | 50 | 20 | 20 | 40 | 60 | 0 | 60 | 50 | 30 | – | – | – | – | – | – | – | – | – |
| C[n+]1cc(C(=O)[N-]S(=O)(=O)c2ccccc2)c2ccccc2n1 [Compound A35] | 20 | 0 | 20 | 0 | 40 | 0 | 10 | 0 | 10 | – | – | – | – | – | – | – | – | – |
| C[n+]1cc(C(=O)[N-]S(=O)(=O)C(C)(C)C)c2ccccc2n1 [Compound A36] | 30 | 10 | 40 | 30 | 20 | 0 | 30 | 30 | 10 | – | – | – | – | – | – | – | – | – |
| CCS(=O)(=O)[N-]C(=O)c1c[n+](C)nc2ccccc12 [Compound A37] | 80 | 40 | 100 | 70 | 90 | 40 | 60 | 80 | 80 | – | – | – | – | – | – | – | – | – |
| C[n+]1cc(C(=O)[N-]S(=O)(=O)c2ccc(F)cc2)c2ccccc2n1 [Compound A38] | 20 | 20 | 60 | 90 | 60 | 0 | 40 | 50 | 30 | – | – | – | – | – | – | – | – | – |
| C[n+]1cc(C(=O)[N-]S(=O)(=O)c2ccc(Cl)s2)c2ccccc2n1 [Compound A39] | 30 | 20 | 80 | 10 | 20 | 0 | 30 | 30 | 10 | – | – | – | – | – | – | – | – | – |
| CCCCCCCC[n+]1cc(C(=O)[N-]S(C)(=O)=O)c2ccccc2n1 [Compound A40] | 10 | 20 | 90 | 10 | 30 | 20 | 40 | 70 | 20 | – | – | – | – | – | – | – | – | – |
| CCCC[n+]1cc(C(=O)[N-]S(C)(=O)=O)c2ccccc2n1 [Compound A41] | 80 | 20 | 80 | 30 | 100 | 30 | 40 | 60 | 40 | – | – | – | – | – | – | – | – | – |
| COC(=O)CCS(=O)(=O)[N-]C(=O)c1c[n+](C)nc2ccccc12 [Compound A42] | 40 | 20 | 70 | 80 | 60 | 10 | 40 | 60 | 60 | – | – | – | – | – | – | – | – | – |
| C[n+]1cc(C(=O)[N-]S(=O)(=O)CCC(F)(F)F)c2ccccc2n1 [Compound A43] | 80 | 30 | 60 | 90 | 90 | 20 | 50 | 30 | 70 | – | – | – | – | – | – | – | – | – |
| C[n+]1cc(C(=O)[N-]S(=O)(=O)C(F)(F)F)c2ccccc2n1 [Compound A44] | 20 | 20 | 80 | 0 | 30 | 0 | 20 | 40 | 0 | – | – | – | – | – | – | – | – | – |
| CC(C)CP(=O)([O-])c1c[n+](C)nc2ccccc12 [Compound A45] | 90 | 70 | 100 | 100 | 100 | 50 | 90 | 90 | 90 | – | – | – | – | – | – | – | – | – |
| CC(C)P(=O)([O-])c1c[n+](C)nc2ccccc12 [Compound A46] | 100 | 90 | 100 | 100 | 100 | 60 | 90 | 100 | 100 | – | – | – | – | – | – | – | – | – |
| CCOP(=O)(Cc1c[n+](C)nc2ccccc12)OCC.[I-] [Compound A47, 4-(diethoxyphosphorylmethyl)-2-methyl-cinnolin-2-ium iodide] | – | – | – | – | – | – | – | – | – | 20 | 30 | 60 | 50 | 30 | 10 | 40 | 70 | 40 |
| CCP(=O)([O-])c1c[n+](C)nc2ccccc12 [Compound A48, ethyl-(2-methylcinnolin-2-ium-4-yl)phosphinate] | 70 | 80 | 100 | 100 | 100 | 40 | 100 | 100 | 70 | – | – | – | – | – | – | – | – | – |
